# Columns and labels:
# PIP4K2 B = target: T1, PIP4K2 B (Homo sapiens, UniProt P78356); assay: Kinase Assay-PIP4K2 B (Transcreener FI); format: biochemical
# T1 construct: made in house; host or cells: E. coli
# T1 sequence (P78356 1-416): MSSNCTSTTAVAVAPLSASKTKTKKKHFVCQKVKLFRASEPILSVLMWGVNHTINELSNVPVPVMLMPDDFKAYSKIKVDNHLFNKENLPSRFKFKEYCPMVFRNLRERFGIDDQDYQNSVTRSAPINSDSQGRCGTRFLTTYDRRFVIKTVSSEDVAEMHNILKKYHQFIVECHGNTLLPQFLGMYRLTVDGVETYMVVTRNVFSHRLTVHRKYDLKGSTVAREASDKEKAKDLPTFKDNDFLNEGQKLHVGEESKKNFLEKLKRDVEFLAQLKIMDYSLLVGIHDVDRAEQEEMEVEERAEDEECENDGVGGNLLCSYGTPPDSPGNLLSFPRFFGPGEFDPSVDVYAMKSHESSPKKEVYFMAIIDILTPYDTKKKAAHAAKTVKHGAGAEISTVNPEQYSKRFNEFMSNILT
# From the text: GST tagged PIP4KtypeIIA and B enzymes were overexpressed in E. Coli and purified to >80% homogeneity. Phosphatidyl inositol-5-phosphate (PI5P, Cat. #850152, Avanti Polar Lipids Inc.) was used as the lipid substrate and phosphatidyl ethanolamine (DOPE 18:1, Cat. #850725, Avanti Polar Lipids Inc.) was used as the carrier lipid for assays. Ultrapure ATP and GTP was purchased from Bellbrooke Labs. ADP Glo reagents were obtained from Promega. Transcreener FI reagent was obtained from Bellbrooke labs.
# • 1. HEPES buffer mix: 200 mM HEPES pH 7.4, 50 mM MgCl2, 0.05% v/v triton X 100 • 2. HNE buffer: 20 mM HEPES, pH 7.4, 100 mM NaCl, 0.5 mM EGTA • 3. H:E buffer: 30 mM HEPES, pH 7.4, 1 mM EGTA
# GST-tagged PIP4KtypeIIB (3.4 μl, 2.77 mg/mL) was diluted to 5 mL using HNE buffer to yield 5× enzyme stock (25 nM)
# Lipid Preparation: In a 10 mL pyrex glass vial, […] were suspended in 2.5 mL of HEPES buffer mix and 2.5 mL of H:E buffer. The contents were mixed and sonicated for 3 min to yield a translucent lipid stock.
# Compound Preparation: Compounds were stored as 5 mM stocks in neat DMSO as room temperature in glass vials. 5 mM stocks were diluted to 2 mM and then serially diluted (3×) in neat DMSO in 96 well polypropylene plates. From the serially diluted stocks, 3 μL was delivered into 250 μL of 25% DMSO (in water) to generate 5× compound stocks. Typically, the highest compound conc. was 24 μM.
# The assay volume was kept at 25 μL. To each well of the reaction plate, 10 μL of lipid stock (1:1 ratio PI5P:DOPE) was delivered. This was followed by the addition of 5 μL of compound in 25% DMSO. Then, to each well, 5 μL of 25 nM (5×) typeIIB enzyme was delivered. The contents were mixed well and incubated for 1 h at 27° C. After 1 h, reaction was initiated by adding 5 μL of 500 μM GTP and the contents were mixed well with a multi-channel pipetteman. The final concentration of the reagents are as follows: 50 mM HEPES, pH 7.3, 10 mM MgCl2, 20 mM NaCl, 0.01% v/v triton-X100, 5% DMSO, 100 μM GTP, 80 μM (2 μg) PI5P, 2 μg DOPE, and 5 nM PIP4KIIB Typically, the highest conc. of compounds was 4.8 μM and the lowest conc. was 0.
# After 2 h, the reaction was quenched by adding 25 μL of transcreener FI reagent. The contents were incubated at rt for 1 h and the Fluorescence (Ex: 584 Em: 623) was read using Molecular Devices Paradigm plate reader. […] The blanks were averaged and subtracted from all other wells. Using a calibration curve, RFU was converted to μM GDP (product). IC50 was calculated by plotting the residual activity (expressed as % No inhibitor control) vs. log [Inh. conc.].
# MOLM-16 = MOLM-16 EC50 assay; format: cell-based; details: MOLM16
# PIP4K2A = target: T2, PIP4K2A (Homo sapiens, UniProt P48426); assay: Kinase Assay-PIP4K2 A (ADP-Glo); format: biochemical
# T2 construct: made in house; host or cells: E. coli
# T2 sequence (P48426 1-406): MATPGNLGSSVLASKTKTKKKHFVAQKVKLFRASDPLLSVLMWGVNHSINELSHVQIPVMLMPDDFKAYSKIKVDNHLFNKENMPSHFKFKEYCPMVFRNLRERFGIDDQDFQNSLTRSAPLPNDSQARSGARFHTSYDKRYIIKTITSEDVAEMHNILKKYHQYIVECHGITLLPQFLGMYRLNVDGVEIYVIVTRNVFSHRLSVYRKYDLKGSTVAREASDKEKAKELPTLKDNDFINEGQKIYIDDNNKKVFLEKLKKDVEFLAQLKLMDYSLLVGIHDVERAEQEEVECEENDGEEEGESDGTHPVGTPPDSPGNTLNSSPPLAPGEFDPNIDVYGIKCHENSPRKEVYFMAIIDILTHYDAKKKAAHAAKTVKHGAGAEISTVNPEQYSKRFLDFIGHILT
# Procedure: Dilution series of the compounds were prepared in DMSO at 100 times the final assay concentration (n1=n0/3 in 10 points). The compounds were further diluted to three times the assay concentration in assay buffer (20 mM MOPS pH 7.2, 25 mM magnesium chloride, 0.005% Tween 20). 6 μL of the diluted compounds were added to a 384 well assay plate followed by 9 μL of a mix consisting of 4 nM PIP4K2A (full length protein, SignalChem) and 100 μM PI(5)P diC8 (Tebu-Bio). Enzyme and compounds were pre-incubated at room temperature for 15 minutes.
# Then 3 μL of a solution containing 60 μM ATP (Promega) in assay buffer was added to the wells containing compound and enzyme and mixing was performed by pipetting several times. The reaction was incubated at room temperature for 1 h. Then 18 μL of ADP-Glo™ Reagent (Promega) was added to stop the kinase reaction and deplete the unconsumed ATP, mixing was performed by pipetting several times. The plate was incubated at room temperature for 40 minutes before addition of 36 μL of Kinase Detection Reagent (Promega) to convert ADP to ATP and introduce luciferase and luciferin to detect ATP. The reaction was incubated at room temperature for 40 minutes before the luminescence was measured in a in a Victor 3V 1420 multilabel counter (Perkin Elmer).
# Percent inhibition of the compounds as compared to dimethyl sulfoxide treated control samples was calculated. Compound concentration versus percent inhibition were fitted to generate IC50 values. […]
IC50 (PIP4K2 B),EC50 (MOLM-16),IC50 (PIP4K2A),Structure (SMILES)
10 to 100 nM,10 to 100 nM,10 to 100 nM,"COc1nc(Nc2cncc(N3CC[C@H](N(C)C)C3)c2)ncc1-c1ccc(N2CCCC2=O)cc1 [Compound 38, 1-{4-[2-({5-[(3S)-3-(dimethylamino)pyrrolidin-1-yl]pyridin-3-yl}amino)-4-methoxypyrimidin-5-yl]phenyl}pyrrolidin-2-one]"
10 to 100 nM,100 to 1000 nM,10 to 100 nM,"COc1nc(Nc2cncc(OCCN3CCC(F)(F)C3)c2)ncc1-c1ccc(-c2nnccc2C)cc1 [Compound 40, N-{5-[2-(3,3-difluoropyrrolidin-1-yl)ethoxy]pyridin-3-yl}-4-methoxy-5-[4-(4-methylpyridazin-3-yl)phenyl]pyrimidin-2-amine]"
10 to 100 nM,100 to 1000 nM,1 to 10 nM,"COc1nc(Nc2cncc(N(C)CC(=O)N3CCNCC3)c2)ncc1-c1ccc(N2CCCC2=O)cc1 [Compound 36, 1-(4-{4-methoxy-2-[(5-{methyl[2-oxo-2-(piperazin-1-yl)ethyl]amino}pyridin-3-yl)amino]pyrimidin-5-yl}phenyl)pyrrolidin-2-one]"
10 to 100 nM,10 to 100 nM,10 to 100 nM,"COc1nc(Nc2cncc(OCCN3CCC(F)(F)C3)c2)ncc1-c1ccc(N2CCCC2=O)cc1 [Compound 41, 1-{4-[2-({5-[2-(3,3-difluoropyrrolidin-1-yl)ethoxy]pyridin-3-yl}amino)-4-methoxypyrimidin-5-yl]phenyl}pyrrolidin-2-one]"
1 to 10 nM,> 1000 nM,≤ 1 nM,"CN(c1nc(Nc2cnc3c(c2)N2C(=O)CC[C@H]2CO3)ncc1-c1ccc(N2CCCC2=O)cc1)C1CCOC1 (stereo partly drawn) [Compound 3, (6S)-12-({4-[methyl(oxolan-3-yl)amino]-5-[4-(2-oxopyrrolidin-1-yl)phenyl]pyrimidin-2-yl}amino)-8-oxa-2,10-diazatricyclo[7.4.0.0^2,6]trideca-1(13),9,11-trien-3-one]"
1 to 10 nM,> 1000 nM,1 to 10 nM,"O=C1CCCN1c1ccc(-c2cnc(Nc3cnc4c(c3)N3C(=O)CC[C@H]3CO4)nc2C(F)(F)F)cc1 [Compound 14, (6S)-12-({5-[4-(2-oxopyrrolidin-1-yl)phenyl]-4-(trifluoromethyl)pyrimidin-2-yl}amino)-8-oxa-2,10-diazatricyclo[7.4.0.0^2,6]trideca-1(9),10,12-trien-3-one]"
10 to 100 nM,> 1000 nM,10 to 100 nM,"O=C1CCCN1c1ccc(-c2cnc(Nc3cnc4c(c3)N3C(=O)CC[C@H]3CO4)nc2CC2(O)COC2)cc1F [Compound 21, (6S)-12-({5-[3-fluoro-4-(2-oxopyrrolidin-1-yl)phenyl]-4-[(3-hydroxyoxetan-3-yl)methyl]pyrimidin-2-yl}amino)-8-oxa-2,10-diazatricyclo[7.4.0.0^2,6]trideca-1(9),10,12-trien-3-one]"
1 to 10 nM,> 1000 nM,1 to 10 nM,"CN(c1nc(Nc2cnc3c(c2)N2C(=O)CC[C@H]2CO3)ncc1-c1ccc(N2CCCC2=O)cc1)[C@@H]1CCOC1 [Compound 7, (6S)-12-[(4-{methyl[(3R)-oxolan-3-yl]amino}-5-[4-(2-oxopyrrolidin-1-yl)phenyl]pyrimidin-2-yl)amino]-8-oxa-2,10-diazatricyclo[7.4.0.0^2,6]trideca-1(13),9,11-trien-3-one]"
10 to 100 nM,100 to 1000 nM,10 to 100 nM,"COc1nc(Nc2cncc(N(C)CCC(=O)N3CCNCC3)c2)ncc1-c1ccc(N2CCCC2=O)cc1 [Compound 39, 1-(4-{4-methoxy-2-[(5-{methyl[3-oxo-3-(piperazin-1-yl)propyl]amino}pyridin-3-yl)amino]pyrimidin-5-yl}phenyl)pyrrolidin-2-one]"
100 to 1000 nM,100 to 1000 nM,100 to 1000 nM,"CCN(CC)CCN1CCOc2ncc(Nc3ncc(-c4ccc(N5CCCC5=O)cc4)c(OC)n3)cc21 [Compound 26, 1-{4-[2-({1-[2-(diethylamino)ethyl]-1H,2H,3H-pyrido[2,3-b][1,4]oxazin-7-yl}amino)-4-methoxypyrimidin-5-yl]phenyl}pyrrolidin-2-one]"
1 to 10 nM,> 1000 nM,1 to 10 nM,"CN(c1nc(Nc2cnc3c(c2)N2C(=O)CC[C@H]2CO3)ncc1-c1ccc(N2CCCC2=O)cc1)[C@H]1C[C@H](O)C1 [Compound 4, (6S)-12-[(4-{methyl[(1r,3r)-3-hydroxycyclobutyl]amino}-5-[4-(2-oxopyrrolidin-1-yl)phenyl]pyrimidin-2-yl)amino]-8-oxa-2,10-diazatricyclo[7.4.0.0^2,6]trideca-1(13),9,11-trien-3-one]"
100 to 1000 nM,10 to 100 nM,100 to 1000 nM,"COc1nc(Nc2cncc(N3CC[C@@H](N(C)C)C3)c2)ncc1-c1ccc(N2CCCC2=O)cc1 [Compound 35, 1-{4-[2-({5-[(3R)-3-(dimethylamino)pyrrolidin-1-yl]pyridin-3-yl}amino)-4-methoxypyrimidin-5-yl]phenyl}pyrrolidin-2-one]"
1 to 10 nM,100 to 1000 nM,1 to 10 nM,"COc1nc(Nc2cnc3c(c2)N(C(=O)OCCN(C)C)CCO3)ncc1-c1ccc(C(=O)N(C)C)cc1 [Compound 15, 2-(dimethylamino)ethyl 7-({5-[4-(dimethylcarbamoyl)phenyl]-4-methoxypyrimidin-2-yl}amino)-1H,2H,3H-pyrido[2,3-b][1,4]oxazine-1-carboxylate]"
≤ 1 nM,> 1000 nM,≤ 1 nM,"O=C(O)CNc1nc(Nc2cnc3c(c2)N2C(=O)CC[C@H]2CO3)ncc1-c1ccc(N2CCCC2=O)cc1 [Compound 1, 2-[(2-{[(6S)-3-oxo-8-oxa-2,10-diazatricyclo[7.4.0.0^2,6]trideca-1(9),10,12-trien-12-yl]amino}-5-[4-(2-oxopyrrolidin-1-yl)phenyl]pyrimidin-4-yl)amino]acetic acid]"
